In patent US5439927A, “Imidazoyl-β-oxo-β-benzenepropanethiomide derivative, compositions and method of use thereof” (Mitsubishi Kasei Corporation, priority 1991, dated 1995):

Key:
[1] = test system: aorta thoracica of a Wistar rat; test: Suppression of 20 mM K shrinkage (contraction) of rat aorta thoracica (Test Example 1); conditions: Klebs-Heneleit solution, 37° C., 20 mMK, read-out: Rat aorta IC30 20 mMK (dose of a drug suppressing 30% of 20 mMK shrinkage)
Description: The aorta thoracica of a Wistar rat was resected and then suspended in a Klebs-Heneleit solution kept at 37° C., according to the Weir and Weston's method (Br. J. Pharmac., 88, 121, (1986)), to determine the dose (IC30 20 mMK) of a drug suppressing 30% of 20 mMK shrinkage. As control, the same test done about the known compound A described in Bull. Soc. Chem. Fr., 1975, 829.

[2] = test system: spontaneous hypertensive rats (OKAMOTO-AOKI strain); test: Blood pressure lowering in spontaneous hypertensive rats after oral administration (Test Example 2); type: in vivo; conditions: 2 hours after the dosing, direct method
Description: At a dose of 3 mg/kg or 10 mg/kg, the compound of the present invention was orally administered to spontaneous hypertensive rats (OKAMOTO-AOKI strain) with an average blood pressure of 150 mmHg or more. According to the direct method described by Nakano H. and Takayanagi K., Japanese Journal of Pharmacology, Vol. 25, 25 (1975), blood pressure and cardiac output were measured. Using the compound A used in the Test Example 1 as control, the same test was done.

SMILES | IC30 [1] [µM] | Mean blood pressure: Blood pressure decrease ([2]; 3 mg/kg) [mmHg] | Mean blood pressure: Blood pressure decrease ([2]; 10 mg/kg) [mmHg]
CNC(=S)C(C)(C)C(=O)c1cccc(-n2ccnc2)c1 [Compound 265] | 0.62 | 76.5 | –
CNC(=S)C(C)(C)C(=O)c1ccc(C#N)cc1 [Compound 224] | 5 | – | 38.8
CNC(=S)C(C)(C)C(=O)c1ccccc1 [Compound A, N, α, α-trimethyl-β-oxobenzenepropanethioamide, reference compound] | 13.6 | – | 14.1
CNC(=S)C1(C(=O)c2ccc(-n3ccnc3)cc2)CC1 [Compound 342] | – | – | 31.2
CNC(=S)C(C)(C)C(=O)c1ccccc1-n1ccnc1 [Compound 302] | – | – | 51.9
CNC(=S)C1(C(=O)c2ccc(-n3ccnc3)cc2)CCC1 [Compound 356, 4-(1-imidazolyl)-N-methyl-β-oxo-α,α-trimethylenebenzenepropanethioamide] | 2.1 | – | 58.9
CNC(=S)C(C)(C)C(=O)c1ccc(-n2ccnc2)cc1 [Compound 226] | 13 | – | 35.9
CNC(=S)C1(C(=O)c2ccc(-n3ccnc3C)cc2)CCC1 [Compound 357] | 0.18 | – | 78.4
